# Data published in US9481676B2, “Azepino[4,5-B]indoles and methods of use” (Medivation Technologies, Inc., priority 2008, dated 2016).
# Assays:
# [1] = biological target: T1, human recombinant adrenergic α2A receptor (Homo sapiens, UniProt P08913); experiment: Adrenergic alpha2A radioligand binding ([3H]MK-912); conditions: compound at 1 μM; read-out: Adrenergic (1 μM) α2A, percent inhibition of specific binding
# T1 construct: expressed in transfected cells; host or cells: insect Sf9 cells
# T1 sequence (P08913 1-465): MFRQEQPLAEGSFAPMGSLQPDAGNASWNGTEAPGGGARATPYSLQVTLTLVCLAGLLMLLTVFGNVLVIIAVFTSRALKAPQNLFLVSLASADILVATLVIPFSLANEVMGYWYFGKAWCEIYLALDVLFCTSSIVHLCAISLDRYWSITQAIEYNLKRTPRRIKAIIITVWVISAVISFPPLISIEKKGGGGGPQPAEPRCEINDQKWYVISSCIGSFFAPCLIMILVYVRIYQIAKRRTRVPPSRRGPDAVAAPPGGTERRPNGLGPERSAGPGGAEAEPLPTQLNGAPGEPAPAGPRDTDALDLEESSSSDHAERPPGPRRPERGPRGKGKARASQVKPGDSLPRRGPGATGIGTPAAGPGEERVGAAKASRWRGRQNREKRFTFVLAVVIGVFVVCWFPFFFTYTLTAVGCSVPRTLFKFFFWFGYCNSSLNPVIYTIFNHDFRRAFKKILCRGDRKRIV
# Method: To evaluate in radioligand binding assays the activity of compounds of the invention, human recombinant adrenergic α2A receptor expressed in insect Sf9 cells (Uhlen S et al. J Pharmacol Exp Ther. 271:1558, 1994) in a modified Tris-HCl buffer (50 mM Tris-HCl, pH 7.4, 12.5 mM MgCl2, 2 mM EDTA) was used. Compounds of invention were incubated with 1 nM [^3H]MK-912 for 60 min. at 25° C. MK912 is (2S-trans)-1,3,4,5′,6,6′,7,12b-octahydro-1′,3′-dimethyl-spiro[2 h-benzofuro [2,3-a]quinolizine-2,4′ (1′H)-pyrimidin]-2′ (3′H)-one hydrochloride Non-specific binding was estimated in the presence of 10 μM WB-4101 (2-(2,6-Dimethoxyphenoxyethyl)aminomethyl-1,4-benzodioxane hydrochloride). Receptor proteins were filtered and washed, the filters were then counted to determine [^3H]MK-912 specifically bound. Compounds were screened at 1 μM or lower, using 1% DMSO as vehicle. Biochemical assay results are presented as the percent inhibition of specific binding in Table 5.
# [2] = biological target: T2, human recombinant histamine H2 receptor (Homo sapiens, UniProt P25021); experiment: Histamine H2 radioligand binding ([125I]Aminopotentidine); conditions: compound at 1 μM; read-out: Histamine Binding (1 μM) H2, percent inhibition of specific binding
# T2 construct: expressed in transfected cells; host or cells: CHO-K1 cells
# T2 sequence (P25021 whole entry): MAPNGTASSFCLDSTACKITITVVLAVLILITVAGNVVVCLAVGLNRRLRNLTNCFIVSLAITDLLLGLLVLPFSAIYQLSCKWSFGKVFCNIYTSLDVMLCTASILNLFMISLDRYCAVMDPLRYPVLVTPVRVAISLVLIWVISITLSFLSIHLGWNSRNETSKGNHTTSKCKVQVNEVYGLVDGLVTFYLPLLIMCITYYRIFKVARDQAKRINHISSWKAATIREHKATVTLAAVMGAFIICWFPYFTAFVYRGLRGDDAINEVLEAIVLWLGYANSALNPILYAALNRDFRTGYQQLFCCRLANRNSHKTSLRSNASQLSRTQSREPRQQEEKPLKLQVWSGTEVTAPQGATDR
# Method in brief: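 Membranes from CHO-K1 cells expressing recombinant human H2 receptor, in 50 mM phosphate buffer pH 7.4, incubated with 0.1 nM [125I]aminopotentidine for 120 min at 25 °C; nonspecific binding defined with 3 μM tiotidine.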
# [3] = biological target: T3, human recombinant serotonin (5-Hydroxytryptamine) 5-HT2A receptor (Homo sapiens, UniProt P28223); experiment: Serotonin 5-HT2A radioligand binding ([3H]Ketanserin); conditions: compound at 1 μM; read-out: Serotonin (1 μM) 5-HT2A, percent inhibition of specific binding
# T3 construct: expressed in transfected cells; host or cells: CHO-K1 cells
# T3 sequence (P28223 whole entry): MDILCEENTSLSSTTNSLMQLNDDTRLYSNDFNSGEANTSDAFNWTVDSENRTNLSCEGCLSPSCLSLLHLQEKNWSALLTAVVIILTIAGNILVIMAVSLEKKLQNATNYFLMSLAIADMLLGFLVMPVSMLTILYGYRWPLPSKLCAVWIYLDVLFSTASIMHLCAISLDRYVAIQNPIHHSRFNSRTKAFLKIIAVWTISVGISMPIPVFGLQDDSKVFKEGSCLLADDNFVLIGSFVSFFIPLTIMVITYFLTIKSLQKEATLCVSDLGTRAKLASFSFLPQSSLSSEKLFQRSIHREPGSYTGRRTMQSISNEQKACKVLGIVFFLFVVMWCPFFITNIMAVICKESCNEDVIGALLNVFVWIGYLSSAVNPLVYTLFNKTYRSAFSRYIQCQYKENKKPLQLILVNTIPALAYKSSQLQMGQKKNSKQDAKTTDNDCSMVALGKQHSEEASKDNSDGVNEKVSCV
# Method in brief: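 Percent inhibition of specific [3H]ketanserin (0.5 nM) binding, filtration read-out, with compounds at ≤1 μM (1% DMSO vehicle). Receptor source: recombinant human 5-HT2A in CHO-K1 cells, 50 mM Tris-HCl pH 7.4, 60 min, 25 °C; 1 μM mianserin gives nonspecific binding.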
# [4] = biological target: T4, human recombinant dopamine D2L receptor (Homo sapiens, UniProt P14416); experiment: Dopamine D2L radioligand binding ([3H]Spiperone); conditions: compound at 1 μM; read-out: Dopamine (1 μM) D2L, percent inhibition of specific binding
# T4 construct: expressed in transfected cells; host or cells: CHO cells
# T4 sequence (P14416 whole entry): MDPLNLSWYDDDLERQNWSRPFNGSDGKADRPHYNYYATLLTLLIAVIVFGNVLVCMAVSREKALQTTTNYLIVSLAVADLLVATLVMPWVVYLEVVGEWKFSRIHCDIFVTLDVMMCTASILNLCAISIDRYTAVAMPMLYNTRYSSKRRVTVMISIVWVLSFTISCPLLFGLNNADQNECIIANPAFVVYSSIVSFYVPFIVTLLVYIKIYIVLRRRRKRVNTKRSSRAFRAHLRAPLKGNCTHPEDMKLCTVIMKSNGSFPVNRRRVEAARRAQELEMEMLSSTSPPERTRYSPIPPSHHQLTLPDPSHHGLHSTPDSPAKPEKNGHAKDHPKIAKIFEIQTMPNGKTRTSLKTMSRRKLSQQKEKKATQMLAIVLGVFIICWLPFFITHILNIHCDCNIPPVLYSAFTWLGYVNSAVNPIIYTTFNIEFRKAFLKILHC
# Method in brief: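 Binding measured by filtration and counting, reported as % inhibition of specific [3H]spiperone binding (0.16 nM tracer; 10 μM haloperidol for nonspecific). Compounds tested at ≤1 μM in 1% DMSO for 120 min at 25° C against CHO-expressed human D2L in pH 7.4 Tris-HCl buffer.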
# [5] = biological target: T5, human recombinant histamine H1 receptor (Homo sapiens, UniProt P35367); experiment: Histamine H1 radioligand binding ([3H]Pyrilamine); conditions: compound at 1 μM; read-out: Histamine Binding (1 μM) H1, percent inhibition of specific binding
# T5 construct: expressed in transfected cells; host or cells: CHO cells
# T5 sequence (P35367 whole entry): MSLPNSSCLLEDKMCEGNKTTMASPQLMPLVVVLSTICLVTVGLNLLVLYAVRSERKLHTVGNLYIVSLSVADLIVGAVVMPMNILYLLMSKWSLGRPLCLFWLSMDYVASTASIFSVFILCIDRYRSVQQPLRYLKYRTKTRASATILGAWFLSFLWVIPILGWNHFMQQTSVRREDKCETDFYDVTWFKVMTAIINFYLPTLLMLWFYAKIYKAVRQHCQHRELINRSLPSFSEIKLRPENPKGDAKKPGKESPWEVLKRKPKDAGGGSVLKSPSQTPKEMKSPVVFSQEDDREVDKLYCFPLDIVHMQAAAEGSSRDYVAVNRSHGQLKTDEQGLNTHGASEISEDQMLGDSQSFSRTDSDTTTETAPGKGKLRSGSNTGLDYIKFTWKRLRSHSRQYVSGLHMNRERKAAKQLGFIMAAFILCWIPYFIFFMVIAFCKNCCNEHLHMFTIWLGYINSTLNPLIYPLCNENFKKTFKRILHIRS
# Method in brief: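 Membranes from CHO cells expressing the receptor were incubated with compound and 1.2 nM [3H]pyrilamine for 180 min at 25 °C in 50 mM Tris-HCl pH 7.4 with MgCl2, NaCl and sucrose; 1 μM pyrilamine defined non-specific binding. Filter-bound radioactivity was counted.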
compound,measurement,setting,value
"Cc1ccc2c(c1)c1c(n2CC(O)c2ccccc2F)CCN(C)CC1 (stereo not drawn) [Compound No. 41, 1-(2-fluorophenyl)-2-(2,3,4,5-tetrahydro-3,9-dimethylazepino[4,5-b]indol-6(1H)-yl)ethanol]",inhibition at 1 µM,[1],95%
same,inhibition at 1 µM,[2],52%
same,inhibition at 1 µM,[3],99%
same,inhibition at 1 µM,[4],34%
same,inhibition at 1 µM,[5],100%
"CN1CCc2c(n(CC(O)c3ccncc3)c3ccc(Cl)cc23)CC1 (stereo not drawn) [Compound No. 42, 2-(9-chloro-2,3,4,5-tetrahydro-3-methylazepino[4,5-b]indol-6(1H)-yl)-1-(pyridin-4-yl)ethanol]",inhibition at 1 µM,[1],87%
same,inhibition at 1 µM,[2],45%
same,inhibition at 1 µM,[3],95%
same,inhibition at 1 µM,[4],8%
same,inhibition at 1 µM,[5],103%
"Cc1ccc2c(c1)c1c(n2CC(O)c2ccncc2)CCN(C)CC1 (stereo not drawn) [Compound No. 43, 2-(2,3,4,5-tetrahydro-3,9-dimethylazepino[4,5-b]indol-6(1H)-yl)-1-(pyridin-4-yl)ethanol]",inhibition at 1 µM,[1],78%
same,inhibition at 1 µM,[2],30%
same,inhibition at 1 µM,[3],93%
same,inhibition at 1 µM,[4],4%
same,inhibition at 1 µM,[5],100%
"Cc1ccc2c(c1)c1c(n2CC(=O)Nc2ccc(F)cc2)CCN(C)CC1 [Compound No. 44, N-(4-fluorophenyl)-2-(2,3,4,5-tetrahydro-3,9-dimethylazepino[4,5-b]indol-6(1H)-yl)acetamide]",inhibition at 1 µM,[1],1%
same,inhibition at 1 µM,[2],1%
same,inhibition at 1 µM,[3],17%
same,inhibition at 1 µM,[4],-8%
same,inhibition at 1 µM,[5],16%
"Cc1ccc2c(c1)c1c(n2CC(=O)N2CCCC2)CCN(C)CC1 [Compound No. 45, 2-(2,3,4,5-tetrahydro-3,9-dimethylazepino[4,5-b]indol-6(1H)-yl)-1-(pyrrolidin-1-yl)ethanone]",inhibition at 1 µM,[1],-9%
same,inhibition at 1 µM,[2],7%
same,inhibition at 1 µM,[3],22%
same,inhibition at 1 µM,[4],-6%
same,inhibition at 1 µM,[5],13%
"Cc1ccc(CCn2c3c(c4cc(Cl)ccc42)CCN(C)CC3)cc1 [Compound No. 46, 9-chloro-3-methyl-6-(4-methylphenethyl)-1,2,3,4,5,6-hexahydroazepino[4,5-b]indole]",inhibition at 1 µM,[1],100%
same,inhibition at 1 µM,[2],89%
same,inhibition at 1 µM,[3],100%
same,inhibition at 1 µM,[4],79%
same,inhibition at 1 µM,[5],108%
"COc1ccc(C(O)Cn2c3c(c4cc(Cl)ccc42)CCN(C)CC3)cc1 (stereo not drawn) [Compound No. 47, 2-(9-chloro-2,3,4,5-tetrahydro-3-methylazepino[4,5-b]indol-6(1H)-yl)-1-(4-methoxyphenyl)ethanol]",inhibition at 1 µM,[1],97%
same,inhibition at 1 µM,[2],70%
same,inhibition at 1 µM,[3],99%
same,inhibition at 1 µM,[4],45%
same,inhibition at 1 µM,[5],100%
"COc1ccc(C(O)Cn2c3c(c4cc(C)ccc42)CCN(C)CC3)cc1 (stereo not drawn) [Compound No. 48, 2-(2,3,4,5-tetrahydro-3,9-dimethylazepino[4,5-b]indol-6(1H)-yl)-1-(4-methoxyphenyl) ethanol]",inhibition at 1 µM,[1],98%
same,inhibition at 1 µM,[2],56%
same,inhibition at 1 µM,[3],97%
same,inhibition at 1 µM,[4],31%
same,inhibition at 1 µM,[5],98%
"COc1ccc(C(O)Cn2c3c(c4cc(Cl)ccc42)CCN(C)CC3)c(F)c1 (stereo not drawn) [Compound No. 49, 2-(9-chloro-2,3,4,5-tetrahydro-3-methylazepino[4,5-b]indol-6(1H)-yl)-1-(2-fluoro-4-methoxyphenyl) ethanol]",inhibition at 1 µM,[1],96%
same,inhibition at 1 µM,[2],65%
same,inhibition at 1 µM,[3],97%
same,inhibition at 1 µM,[4],32%
same,inhibition at 1 µM,[5],94%
"COc1ccc(C(O)Cn2c3c(c4cc(C)ccc42)CCN(C)CC3)c(F)c1 (stereo not drawn) [Compound No. 50, 1-(2-fluoro-4-methoxyphenyl)-2-(2,3,4,5-tetrahydro-3,9-dimethylazepino[4,5-b]indol-6(1H)-yl)ethanol]",inhibition at 1 µM,[1],94%
same,inhibition at 1 µM,[2],65%
same,inhibition at 1 µM,[3],98%
same,inhibition at 1 µM,[4],34%
same,inhibition at 1 µM,[5],98%
"CN1CCc2c(n(CC(O)c3ccc(F)cc3)c3ccc(Cl)cc23)CC1 (stereo not drawn) [Compound No. 51, 2-(9-chloro-2,3,4,5-tetrahydro-3-methylazepino[4,5-b]indol-6(1H)-yl)-1-(4-fluorophenyl) ethanol]",inhibition at 1 µM,[1],98%
same,inhibition at 1 µM,[2],70%
same,inhibition at 1 µM,[3],97%
same,inhibition at 1 µM,[4],30%
same,inhibition at 1 µM,[5],102%
"Cc1ccc2c(c1)c1c(n2CC(O)c2ccc(F)cc2)CCN(C)CC1 (stereo not drawn) [Compound No. 52, 1-(4-fluorophenyl)-2-(2,3,4,5-tetrahydro-3,9-dimethylazepino[4,5-b]indol-6(1H)-yl)ethanol]",inhibition at 1 µM,[1],97%
same,inhibition at 1 µM,[2],61%
same,inhibition at 1 µM,[3],97%
same,inhibition at 1 µM,[4],20%
same,inhibition at 1 µM,[5],96%
"CN1CCc2c(n(CC(=O)N3CCCC3)c3ccc(Cl)cc23)CC1 [Compound No. 53, 2-(9-chloro-2,3,4,5-tetrahydro-3-methylazepino[4,5-b]indol-6(1H)-yl)-1-(pyrrolidin-1-yl)ethanone]",inhibition at 1 µM,[1],1%
same,inhibition at 1 µM,[2],3%
same,inhibition at 1 µM,[3],41%
same,inhibition at 1 µM,[4],2%
same,inhibition at 1 µM,[5],14%
"Cc1ccc2c(c1)c1c(n2CC(=O)NC(C)C)CCN(C)CC1 [Compound No. 54, 2-(2,3,4,5-tetrahydro-3,9-dimethylazepino[4,5-b]indol-6(1H)-yl)-N-isopropylacetamide]",inhibition at 1 µM,[1],5%
same,inhibition at 1 µM,[2],-3%
same,inhibition at 1 µM,[3],1%
same,inhibition at 1 µM,[4],6%
same,inhibition at 1 µM,[5],18%
"Cc1ccc2c(c1)c1c(n2CC(=O)OC2CCCC2)CCN(C)CC1 [Compound No. 55, Cyclopentyl-2-(2,3,4,5-tetrahydro-3,9-dimethylazepino[4,5-b]indol-6(1H)-yl)acetate]",inhibition at 1 µM,[1],12%
same,inhibition at 1 µM,[2],-3%
same,inhibition at 1 µM,[3],-2%
same,inhibition at 1 µM,[4],6%
same,inhibition at 1 µM,[5],15%
"CN1CCc2c(n(CCc3ccccc3)c3ccc(Cl)cc23)CC1 [Compound No. 56, 9-chloro-1,2,3,4,5,6-hexahydro-3-methyl-6-phenethylazepino[4,5-b]indole]",inhibition at 1 µM,[1],95%
same,inhibition at 1 µM,[2],74%
same,inhibition at 1 µM,[3],97%
same,inhibition at 1 µM,[4],62%
same,inhibition at 1 µM,[5],105%
"CN1CCc2c(n(CC(=O)N3CCCCC3)c3ccc(Cl)cc23)CC1 [Compound No. 57, 2-(9-chloro-2,3,4,5-tetrahydro-3-methylazepino[4,5-b]indol-6(1H)-yl)-1-(piperidin-1-yl)ethanone]",inhibition at 1 µM,[1],-1%
same,inhibition at 1 µM,[2],1%
same,inhibition at 1 µM,[3],10%
same,inhibition at 1 µM,[4],10%
same,inhibition at 1 µM,[5],8%
"CN1CCc2c(n(CC(O)c3ccc(F)c(F)c3)c3ccc(Cl)cc23)CC1 (stereo not drawn) [Compound No. 58, 2-(9-chloro-2,3,4,5-tetrahydro-3-methylazepino[4,5-b]indol-6(1H)-yl)-1-(3,4-difluorophenyl)ethanol]",inhibition at 1 µM,[1],95%
same,inhibition at 1 µM,[2],91%
same,inhibition at 1 µM,[3],100%
same,inhibition at 1 µM,[4],47%
same,inhibition at 1 µM,[5],98%
